The results in this text go back to article PMC7181660, “A novel specific PERK activator reduces toxicity and extends survival in Huntington's disease models” (Scientific Reports, 2020).

The target in one series is EIF2AK2 (PKR) (Homo sapiens, UniProt P19525). Kind of series: In vitro HotSpot kinase assay on PKR. The class given is biochemical. As to the method:
In vitro kinase assays with purified components and full kinase panel analysis was done at Reaction Biology Corp. (Malvern, PA, USA) using the HotSpot Kinase Assay. Reactions were performed for 20 min at room temp. using ^33P-ATP (Specific activity 10 μCi/μl) with 1 μM total ATP, 20 μM substrate and kinases in the nanomolar range in 20 mM Hepes (pH 7.5), 10 mM MgCl2, 1 mM EGTA, 0.02% Brij35, 0.02 mg/ml BSA, 0.1 mM Na3VO4, 2 mM DTT, 1% DMSO and other required factors depending on the assayed kinase.

The next series relates to PERK-P. Nature of the series: PERK phosphorylation shift by immunoblot in MEF cells. The class given is cell-based. The note with it: 3 hours, Thap 2 μg/ml.
The test system of series [1] is R6/2 HD mouse model. Nature of the series: Survival of R6/2 mice. It is filed as in vivo. As to the method:
All experimental procedures were approved by and conducted in strict compliance with the Institutional Animal Care and Use Committee of Tel Aviv University. Mice were kept in a 12/12-hour light/dark cycle with food and water ad libitum. […]. At three weeks mice were assessed for CAG repeat size using the following primer set: 5’-[…]-3′ and 5′-[…] G-3′. Following Jackson laboratories guidelines, wild type (WT) and TG littermates were kept combined in the same minimally-enriched cages (with cardboard rolls and gauze pads), and after week 8 water and mushed food were placed at the ground level for all the cages. Male mice treatment groups were coded and remained blind to the observers throughout the experiment. Power calculations determined that 16 mice per group was the minimum required to see at least a 20% increase (alpha 0.05, beta 0.2, power 80%) in motor performance and survival of R6/2 mice with MK-28 subcutaneous delivery compared to vehicle. Multiple endpoints were prospectively selected, consistent with the analyses we here report. Data collection was ended before signs of animal suffering or inability to thrive appear.
Alzet pumps model 1004 (Alzet, USA), with a rate of 0.11 µl/hour and 28 days effective compound delivery was used. MK-28 compound was dissolved in 1:1 DMSO/PEG400 and prepared to delivery subcutaneously 6 mg/kg MK-28 for toxicity studies (n = 8) or 1 mg/kg for therapeutic evaluation in R6/2 mice (n = 72). For toxicity studies mice receiving six times the therapeutic dose of MK-28 or vehicle were weighed every two days for two consecutive weeks. […]. Alzet pumps were implanted in 4 weeks old mice and MK-28 was administered at 1 mg/kg with continuous dosing for 28 days. […]

The test system of the next series is HMOX1 mRNA. Nature of the series: HMOX1 mRNA (downstream target of NRF2-P) by qPCR. It is filed as cell-based, murine. To be noted: STHdh^Q7/7 and STHdh^Q111/111 cells. As to the method:
(§1) Total cell RNA was extracted with TRIzol reagent (Invitrogen) according to the manufacturer's instructions. Reverse transcription (RT) was performed with QuantaBio qScript cDNA synthesis kit. Real-time qPCR was carried out using a CFX Connect Real-Time PCR Detection System (BioRad) and the amplifications were done using the SYBR Green PCR Master Mix (pcrbio). Reactions were run in triplicates in three independent experiments. Housekeeping gene GAPDH was used as an internal control to normalize the variability of expression levels.
Suppl. Fig. S5. NRF2 activation but not involvement in cell protection by MK-28. A)
Scheme of NRF2 activation by PERK. B) qPCR of HMOX1, a downstream target of NR F2.
Medians +- interquartile range of 3 independent experiments . P values of STHdhQ7/7 MK 5µM […]
presence of Tun and the indicated concentrations of MK-28, plus increasing concentrations of the NRF2 inhibitor ML385. Average of 3 independent experiments +-SD. D) Apoptosis of STHdhQ111/111 cells treated only with increasing concentrations of ML385. Average of 3 independent experiments +-SD.
(1 picture or pasted object on this page, not shown here)

The subject of a further series is ATF4. Kind of series: ATF4 protein levels by immunoblot in STHdh^Q7/7 cells. It is filed as cell-based, murine. The note with it: high MK-28 concentration. The procedure: STHdh^Q7/7 and STHdh^Q111/111 cells were treated with different concentrations of MK-28. The concentration range was chosen in accordance to previous studies with A4. Cells were lysed with PBS containing 1% Triton X-100, 0.5% Sodium deoxycholate with protease and phosphatase inhibitors cocktails. Cocktail 2 and 3 (Sigma) were added to the lysis buffer for detection of phosphorylated proteins and lysates were incubated on ice for 30 minutes, then centrifuged at 16,000xg for 30 minutes a 4 °C. […] Immunoblotting, detection by ECL and quantitation was done as described previously.

Series [2] deals with R6/2 HD mouse model. Nature of the series: Rotarod test. It is filed as in vivo, mice. The note with it: 1 mg/kg subcutaneous 28 days. The procedure: Motor activity was assessed by the rotarod test (San Diego Instruments, CA, USA) (0–25 RPM). Relative slow acceleration was used to discriminate small differences between groups particularly at advanced stages of the disease. All mice were trained together before any experimental procedure was performed to set a common baseline. They were required to stay at least 2 minutes without falling in order to participate in the study. R6/2 mice and control littermates were tested every week after pump transplantation. Each test consisted of 3 consecutive measurements of 5 minutes with inter-trial recess of 5 minutes. The latency to fall was recorded and the best performance of the three trials was considered for the analysis.

The test system of the next series is CHOP mRNA. Kind of series: CHOP mRNA by qPCR in STHdh^Q7/7 and STHdh^Q111/111 cells. The class given is cell-based, murine. The note with it: both cell types, qPCR vs GAPDH. As to the method: as §1
The next series relates to PERK−/− MEF cells. Nature of the series: Rescue from tunicamycin-induced apoptosis in PERK−/− MEFs. The class given is cell-based. To be noted: Tun. The procedure: STHdh^Q111/111 cells (used before[13]) or PERK+/+ or PERK−/− MEFs (kindly provided by David Ron, Univ. Cambridge) were incubated with Tun (10 μg/ml) for 48 h, which results in ER stress-induced cell death. Cells under the same conditions were incubated for the same times, together with Tun, with increasing concentrations of the different PERK modulators (0–120 μM) and the percent of apoptotic cells was measured by FACS cell cycle progression using propidium iodide (PI), considering the fraction beneath G0/G1. The relative apoptosis rate was calculated to be able to compare between compounds and experiments, where for each concentration curve the percent of apoptotic cells was considered 100 at concentration 0 of the PERK modulator, with only Tun. The graphs show the average relative apoptosis rate of at least 3 independent experiments for each compound.
Cells were washed with PBS and fixed with cold methanol. Before FACS analysis cells were washed with PBS, followed by addition of propidium iodide (PI) solution (10 μg/ml) and analysis by flow cytometry. Cells in sub-G0/G1 were counted as apoptotic/ dead.

Setting [3] is: R6/2 TG, 1 mg/kg subcutaneous 28 days.

Sequence of EIF2AK2 (PKR) (P19525 whole entry): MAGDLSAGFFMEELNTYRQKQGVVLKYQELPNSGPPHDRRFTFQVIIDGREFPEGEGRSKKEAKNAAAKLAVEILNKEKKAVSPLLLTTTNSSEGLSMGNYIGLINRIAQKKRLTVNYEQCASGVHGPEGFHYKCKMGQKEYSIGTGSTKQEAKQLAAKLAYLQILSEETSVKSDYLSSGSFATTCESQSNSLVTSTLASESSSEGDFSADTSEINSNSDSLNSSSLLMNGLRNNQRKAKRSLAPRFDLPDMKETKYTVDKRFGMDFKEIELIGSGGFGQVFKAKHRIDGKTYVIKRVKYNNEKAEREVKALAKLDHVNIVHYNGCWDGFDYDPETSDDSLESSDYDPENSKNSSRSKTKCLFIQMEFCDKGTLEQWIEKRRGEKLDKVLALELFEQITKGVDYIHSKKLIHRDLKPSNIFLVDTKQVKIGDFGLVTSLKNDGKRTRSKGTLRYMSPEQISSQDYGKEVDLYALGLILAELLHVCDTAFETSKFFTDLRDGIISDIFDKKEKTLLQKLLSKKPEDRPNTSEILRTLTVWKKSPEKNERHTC

Regarding `CN(/N=C\c1ccc(O)c(O)c1)c1nc(-c2ccccc2)cc(-c2ccccc2)n1` [MK-28], the “effect on EIF2AK2 (PKR) activity” value at EIF2AK2 (PKR) is “little or no effect”. Moreover, in the series on PERK-P, the “PERK migration shift (PERK-P)” value is reported as “shift of part of the PERK population to a slower migration”. Further, the “extension of median survival and death initiation” value with R6/2 HD mouse model [1] (28-day treatment in young R6/2 mice) is 10%. The “survival curve ratio (Gehan-Breslow-Wilcoxon test)” value in the series with R6/2 HD mouse model [1] (95% CI 0.7726 to 4.611) is 1.887. Further, in the series with R6/2 HD mouse model [1] (setting [3]), the “delay of death initiation” value was 10 days, the “increase of median survival compared to controls” value is reported as 8 days and the median survival was 97 days. Moreover, the “HMOX1 mRNA levels” value with HMOX1 mRNA is recorded as “upregulation”. The “increase of ATF4 protein levels” value in the series on ATF4 is given as “up to 2.5 fold”. Also, the “motor performance (rotarod) of TG mice vs untreated TG” value in the series on R6/2 HD mouse model [2] (R6/2 TG, week 4) is “significant improvements in motor performance”. Moreover, the “motor performance (rotarod) of WT animals” value in the series on R6/2 HD mouse model [2] (WT mice) was “no compromised motor performance”. In the series on CHOP mRNA, the “increase of CHOP mRNA levels” value is “up to 10 fold”. Moreover, the “protection from ER stress-induced cell death” value in the series on PERK−/− MEF cells is “failed to protect”.
